Source: patent US9815796B2 (Merck Sharp & Dohme Corp., priority 2013, dated 2017)
Read-outs that look alike come from different tables or passages of the source.

Target: Rhesus PDE2A3 (Macaca mulatta, UniProt B3VTJ2)
Assay: PDE2 fluorescence polarization (IMAP FP) inhibition assay, rhesus enzyme
Assay type: biochemical, rhesus macaque
Description: The activity of the compounds in accordance with the present invention as PDE2 inhibitors may be readily determined using a fluorescence polarization (FP) methodology (Huang, W., et al., J. Biomol Screen, 2002, 7: 215).
In a typical experiment the PDE2 inhibitory activity of the compounds of the present invention was determined in accordance with the following experimental method. Rhesus PDE2A3 was amplified from rhesus macaque brain cDNA (Biochain Institute, Hayward, Calif.) using primers based on human PDE2A sequence (accession NM_002599.3) where the forward primer containing a Kozak consensus was 5′-[…]-3′ and the reverse primer was 5′-[…]-3′. Amplification with Easy-A High-Fidelity PCR cloning enzyme (Stratagene, La Jolla, Calif.) was 95° C. for 2 minutes followed by thirty three cycles of 95° C. for 40 seconds, 52° C. for 30 seconds, and 72° C. for 2 minutes 48 seconds. Final extension was 72° C. for 7 minutes. The PCR product was TA cloned into pcDNA3.3-TOPO (Invitrogen, Carlsbad, Calif.) according to standard protocol. A consensus sequence was developed from multiple clones and then deposited into GenBank (EU812167). AD293 cells (Stratagene, La Jolla, Calif.) with 70-80% confluency were transiently transfected with rhesus PDE2A3/pcDNA3.3-TOPO using Lipofectamine 2000 according to manufacturer specifications (Invitrogen, Carlsbad, Calif.). Cells were harvested 48 hours post-transfection and lysed by sonication (setting 3, 10×5 sec pulses) in a buffer containing 20 mM HEPES pH 7.4, 1 mM EDTA and Complete Protease Inhibitor Cocktail Tablets (Roche, Indianapolis, Ind.). Lysate was collected by centrifugation at 75,000×g for 20 minutes at 4° C. and supernatant utilized for evaluation of PDE2 activity. The fluorescence polarization assay for cyclic nucleotide phosphodiesterases was performed using an IMAP® FP kit supplied by Molecular Devices, Sunnyvale, Calif. (product # R8139). […] Assays were performed at room temperature in 384-well microtiter plates with an incubation volume of 20.2 μL. Solutions of test compounds were prepared in DMSO and serially diluted with DMSO to yield 8 μL of each of 10 solutions differing by 3-fold in concentration, at 32 serial dilutions per plate. […] 0% of inhibition is determined by using DMSO (1% final concentrations).
A Labcyte Echo 555 (Labcyte, Sunnyvale, Calif.) is used to dispense 200 nL from each well of the titration plate to the 384 well assay plate. Ten microliters of a solution of enzyme (1/2000 final dilution from aliquots; sufficient to produce 20% substrate conversion) was added to the assay plate. Next 10 uL of a separate solution of the substrate FAM-labeled cAMP (50 nM final concentration product # R7506 from Molecular Devices) and the activator cGMP (1 uM final concentration), prepared in the assay buffer (10 mM Tris HCl, pH 7.2, 10 mM MgCl2, 0.05% NaN3 0.01% Tween-20, and 1 mM DTT) was added to the assay plate and shaken to mix. The reaction is allowed to proceed at room temperature for 60 minutes. A binding solution is then made from the kit components, comprised of 80% Solution A, 20% Solution B and binding reagent at a volume of 1/600 the total binding solution. The enzymatic reaction is stopped by addition of 60 μL of the binding solution to each well of the assay plates and the plates are sealed and shaken for 30 seconds. The plate was incubated at room temperature for at least one hour prior to determining the fluorescence polarization (FP). The parallel and perpendicular fluorescence of each well of the plate was measured using a Tecan Genios Pro plate reader (Tecan, Switzerland) or Perkin Elmer EnVision™ plate reader (Waltham, Mass.). Fluorescence polarization (mP) was calculated from the parallel (S) and perpendicular (P) fluorescence of each sample well and the analogous values for the median control well, containing only substrate (So and Po), using the following equation: Polarization (mP)=1000*(S/So−P/Po)/(S/So+P/Po).

[1] = Rhesus PDE2, Lab A, read-out: Rhesus PDE2 Ki (nM) - Lab A
[2] = Rhesus PDE2, Lab B, read-out: Rhesus PDE2 Ki (nM) - Lab B

Rhesus PDE2A3, sequence (B3VTJ2 1-941): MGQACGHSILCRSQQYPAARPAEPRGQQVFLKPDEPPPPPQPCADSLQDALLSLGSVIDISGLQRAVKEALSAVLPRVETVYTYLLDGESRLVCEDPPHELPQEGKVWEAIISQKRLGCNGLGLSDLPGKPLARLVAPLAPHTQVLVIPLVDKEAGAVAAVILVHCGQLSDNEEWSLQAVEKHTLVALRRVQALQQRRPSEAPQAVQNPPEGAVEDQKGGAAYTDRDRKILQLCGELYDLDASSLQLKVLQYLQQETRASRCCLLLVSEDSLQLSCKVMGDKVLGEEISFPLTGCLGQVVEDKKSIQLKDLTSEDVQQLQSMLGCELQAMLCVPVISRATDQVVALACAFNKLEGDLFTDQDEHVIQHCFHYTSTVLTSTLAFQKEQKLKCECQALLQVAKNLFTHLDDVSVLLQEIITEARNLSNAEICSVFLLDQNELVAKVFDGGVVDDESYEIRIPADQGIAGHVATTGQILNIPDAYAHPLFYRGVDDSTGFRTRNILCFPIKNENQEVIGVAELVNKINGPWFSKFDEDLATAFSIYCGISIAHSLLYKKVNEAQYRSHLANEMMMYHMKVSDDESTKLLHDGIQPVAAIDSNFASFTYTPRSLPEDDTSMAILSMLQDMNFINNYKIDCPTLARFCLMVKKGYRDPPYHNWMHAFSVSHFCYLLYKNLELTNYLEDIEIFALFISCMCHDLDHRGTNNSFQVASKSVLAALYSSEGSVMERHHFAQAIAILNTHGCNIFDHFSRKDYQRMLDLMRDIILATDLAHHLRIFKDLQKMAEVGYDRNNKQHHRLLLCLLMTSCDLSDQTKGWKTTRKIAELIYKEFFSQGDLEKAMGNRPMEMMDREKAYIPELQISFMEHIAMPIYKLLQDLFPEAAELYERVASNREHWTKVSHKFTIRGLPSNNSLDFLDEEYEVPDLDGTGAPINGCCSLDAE

SMILES	Ki [1] [nM]	Ki [2] [nM]	Rhesus PDE2 % inh. at 1 uM - Lab A (Rhesus PDE2, Lab A) [% inh.]
COc1ccc(C(NC(=O)c2cc(=O)[nH]c(C3CC3)n2)c2ccc(C(F)(F)F)cc2)cc1 (centres unmarked) [Example 205, 2-cyclopropyl-N-{(4-methoxyphenyl)[4-(trifluoromethyl)phenyl]methyl}-6-oxo-1,6-dihydropyrimidine-4-carboxamide]	694	–	–
CC(C)(NC(=O)c1cc(=O)[nH]c(-c2ccccc2)n1)c1ccc(F)c(F)c1 [Example 344, N-[1-(3,4-difluorophenyl)-1-methylethyl]-6-oxo-2-phenyl-1,6-dihydropyrimidine-4-carboxamide]	~449	681	–
COc1ccc(C(C)(C)NC(=O)c2cc(=O)[nH]c(-c3ccccc3)n2)cc1 [Example 460, N-[1-(4-methoxyphenyl)-1-methylethyl]-6-oxo-2-phenyl-1,6-dihydropyrimidine-4-carboxamide]	–	371	–
CC(C)[C@@H](NC(=O)c1cc(=O)[nH]c(-c2ncccn2)n1)c1ccc(SC(F)(F)F)cc1 [Example 97, N-[(1R)-2-methyl-1-{4-[(trifluoromethyl)sulfanyl]phenyl}propyl]-6-oxo-1,6-dihydro-2,2′-bipyrimidine-4-carboxamide]	1.5	–	–
CC(C)(NC(=O)c1cc(=O)[nH]c(-c2ncccn2)n1)c1ccc(OC(F)(F)F)c(F)c1 [Example 71, N-{1-[3-fluoro-4-(trifluoromethoxy)phenyl]-1-methylethyl}-6-oxo-1,6-dihydro-2,2′-bipyrimidine-4-carboxamide]	1570	–	–
CC[C@@H](NC(=O)c1cc(=O)[nH]c(-c2ncccn2)n1)c1ccc(SC(F)(F)F)cc1 [Example 100, 6-oxo-N-[(1R)-1-{4-[(trifluoromethyl)sulfanyl]phenyl]propyl]-1,6-dihydro-2,2′-bipyrimidine-4-carboxamide]	2.6	–	–
O=C(c1cc(=O)[nH]c(-c2ccccc2)n1)N1CCCCC1c1ccc(C(F)(F)F)cc1 (centres unmarked) [Example 346, 2-phenyl-6-({2-[4-(trifluoromethyl)phenyl]piperidin-1-yl}carbonyl)pyrimidin-4(3H)-one]	2350	–	–
O=C(NC(c1ccccc1)c1ccc(C(F)(F)F)cc1)c1cc(=O)[nH]c(C2CC2)n1 (centres unmarked) [Example 196, 2-cyclopropyl-6-oxo-N-{phenyl[4-(trifluoromethyl)phenyl]methyl}-1,6-dihydropyrimidine-4-carboxamide]	915	–	–
C[C@@H](NC(=O)c1cc(=O)[nH]c(C(C)(C)n2cccn2)n1)c1ccc(C(F)(F)F)cc1 [Example 7, 2-[1-methyl-1-(1H-pyrazol-1-yl)ethyl]-6-oxo-N-{(1R)-1-[4-(trifluoromethyl)phenyl]ethyl}-1,6-dihydropyrimidine-4-carboxamide]	2780	–	–
CC(NC(=O)c1cc(=O)[nH]c(-c2ccccc2)n1)c1cccc(C(F)(F)F)c1 (centres unmarked) [Example 395, 6-oxo-2-phenyl-N-{1-[3-(trifluoromethyl)phenyl]ethyl}-1,6-dihydropyrimidine-4-carboxamide]	–	2050	–
CC1(C(NC(=O)c2cc(=O)[nH]c(C3CC3)n2)c2ccc(SC(F)(F)F)c(F)c2)CC1 (single isomer, unassigned) [Example 705, (S)- or (R)-2-cyclopropyl-N-((3-fluoro-4-((trifluoromethyl)thio)phenyl)(1-methylcyclopropyl)methyl)-6-oxo-1,6-dihydropyrimidine-4-carboxamide]	–	1070	–
C[C@@H](NC(=O)c1cc(=O)[nH]c(-c2nccs2)n1)c1ccc(C(F)(F)F)cc1 [Example 674, (R)-6-oxo-2-(thiazol-2-yl)-N-(1-(4-(trifluoromethyl)phenyl)ethyl)-1,6-dihydropyrimidine-4-carboxamide]	–	583	–
C[C@@H](NC(=O)c1cc(=O)[nH]c(-c2ccccc2)n1)c1cccc(C(F)(F)F)c1 [Example 168, 6-oxo-2-phenyl-N-{(1R)-1-[3-(trifluoromethyl)phenyl]ethyl}-1,6-dihydropyrimidine-4-carboxamide]	467	–	–
Cc1nc(C(=O)N[C@H](C)c2ccc(S(=O)(=O)C(F)(F)F)cc2)cc(=O)[nH]1 [Example 331, 2-Methyl-6-oxo-N-[(1R)-1-{4-[(trifluoromethyl)sulfonyl]phenyl}ethyl]-1,6-dihydropyrimidine-4-carboxamide]	304	–	–
O=C(NCc1c(Cl)cc(C(F)(F)F)cc1Cl)c1cc(=O)[nH]c(-c2ccccc2)n1 [Example 156]	> 1000	–	9
Cc1cc(C(F)(F)F)ccc1C(C)NC(=O)c1cc(=O)[nH]c(C2CC2)n1 (centres unmarked) [Example 208]	291	–	–
CC(NC(=O)c1cc(=O)[nH]c(-c2ccccc2)n1)c1ccc(C(F)(F)F)nc1 (centres unmarked) [Example 356, 6-oxo-2-phenyl-N-{1-[6-(trifluoromethyl)pyridin-3-yl]ethyl}-1,6-dihydropyrimidine-4-carboxamide]	345	490	–
COc1ccc([C@H](C)NC(=O)c2cc(=O)[nH]c(-c3ccccc3)n2)cc1 [Example 357, N-[(1S)-1-(4-methoxyphenyl)ethyl]-6-oxo-2-phenyl-1,6-dihydropyrimidine-4-carboxamide]	–	~11300	–
C[C@H](O)[C@@H](NC(=O)c1cc(=O)[nH]c(C2CC2)n1)c1ccc(C(F)(F)F)cc1 [Example 442, 2-cyclopropyl-N-{(1S,2S)-2-hydroxy-1-[4-(trifluoromethyl)phenyl]propyl}-6-oxo-1,6-dihydropyrimidine-4-carboxamide]	–	> 2970	–
Cc1nc(C(=O)N[C@@H](C)c2cccc3ccccc23)cc(=O)[nH]1 [Example 302, 2-methyl-N-[(3S)-1-naphthalen-1-ylethyl]-6-oxo-1,6-dihydropyrimidine-4-carboxamide]	51400	–	–
O=C(NCc1c(Cl)cc(C(F)(F)F)cc1Cl)c1cc(=O)[nH]c(C2CC2)n1 [Example 239, 2-cyclopropyl-N-[2,6-dichloro-4-(trifluoromethyl)benzyl]-6-oxo-1,6-dihydropyrimidine-4-carboxamide]	3070	–	–
C[C@@H](NC(=O)c1cc(=O)[nH]c(-c2ncccn2)n1)c1cc(F)c(C(F)(F)F)cc1F [Example 429, N-{(1R)-1-[2,5-difluoro-4-(trifluoromethyl)phenyl]ethyl}-6-oxo-1,6-dihydro-2,2′-bipyrimidine-4-carboxamide]	–	42	–
C[C@@H](NC(=O)c1cc(=O)[nH]c(C2CC2)n1)c1ccc(C(F)(F)F)c2ccccc12 [Example 235, 2-cyclopropyl-6-oxo-N-{(1R)-1-[4-(trifluoromethyl)naphthalen-1-yl]ethyl}-1,6-dihydropyrimidine-4-carboxamide]	274	–	–
CC(NC(=O)c1cc(=O)[nH]c(-c2ncccn2)n1)c1ncc(C(F)(F)F)cn1 (centres unmarked) [Example 105, 6-oxo-N-{1-[5-(trifluoromethyl)pyrimidin-2-yl]ethyl}-1,6-dihydro-2,2′-bipyrimidine-4-carboxamide]	3470	–	–
C[C@@H](NC(=O)c1cc(=O)[nH]c(-c2ccccc2)n1)c1ccc(C(F)(F)F)c2ccccc12 [Example 153]	> 1000	~1970	41
O=C(NCc1ccc(C(F)(F)F)cc1Cl)c1cc(=O)[nH]c(-c2ccccc2)n1 [Example 181, N-[2-chloro-4-(trifluoromethyl)benzyl]-6-oxo-2-phenyl-1,6-dihydropyrimidine-4-carboxamide]	485	–	–
CC(C)(NC(=O)c1cc(=O)[nH]c(-c2ncccn2)n1)c1ccc(SC(F)(F)F)c(F)c1 [Example 241, N-(1-{3-fluoro-4-[(trifluoromethyl)sulfanyl]phenyl}-1-methylethyl)-6-oxo-1,6-dihydro-2,2′-bipyrimidine-4-carboxamide]	557	–	–
